Laboratory results as given in article PMC8861431, “Tissue Pharmacokinetic Properties and Bystander Potential of Hypoxia-Activated Prodrug CP-506 by Agent-Based Modelling” (Frontiers in Pharmacology, 2022).
Where two headings read alike, the source gives them in different places.

Tests used:
[1] = Media stability studies (stirred medium without serum, 37°C); assay type: physicochemical
Experimental: The stability of each compound was determined in stirred medium (without serum) maintained under aerobic conditions by the constant supply of a humidified gas mixture comprised of 21% O2, 5% CO2 with balance N2. Vials were spiked with 100 µM of the relevant compound, and samples were collected using a positive displacement pipettor for up to 3 h thereafter. The collected samples were then treated with two-volumes of ice-cold acetonitrile containing 2 µM of the relevant deuterated (D8) internal standard and stored at −80°C until LC-MS/MS analysis.
The LC system for tandem MS consisted of an Agilent 1200 autosampler (4°C) and binary pump, a 3.0 × 50 mm, 1.8-micron Zorbax SB-C18 column (Agilent; PN: 827975-302) and 2.1 × 7 mm guard column (Alltech, IL) maintained at 35°C, at a pressure of <400 bar and flow rate of 0.3 ml/min. The mobile phase comprised a gradient of 0.01% formic acid in 80% acetonitrile - 20% water, v/v (solvent A), and 0.01% formic acid in water (solvent B). Initial mobile phase composition was 20% solvent A and 80% solvent B, increasing to 60% A (0–3 min) then 80% A (3–5.45 min), returning to initial conditions (5.5–6 min). Post-run time was 1 min, and the total run time was […]. Mass spectrometric detection was carried out using an Agilent 6410 triple quadrupole mass spectrometer equipped with a multimode ionization (MMI) source. The mass spectrometer was operated in electrospray positive ionization mode using multiple reaction monitoring (MRM), with Q1 & Q3 set to unit resolution ([…]). The electrospray ionization parameters, optimized for the parent molecular ion ([M+H]+) abundance were: drying gas temperature 325°C, vaporiser temperature 150°C, drying gas flow 5 L/min, nebuliser pressure 50 psi, capillary voltage 1.8 kV, Delta EMV 300 V. Ultra-pure nitrogen was used as collision gas. The divert valve feature of the Agilent 6410 triple quadrupole mass spectrometer was utilised to prevent the eluate from entering the ionisation source chamber during the first 0.5 min of each run. For CP-506 samples, positively charged ions representing the [M+H]+ for CP-506 and CP-506-D8 were collisionally dissociated to form specific product ions which were monitored in MS2 (unit resolution). The MRM transition, ionization mode, collision energy, dwell time, fragmentor voltage and retention time for all compounds is provided in Supplementary Table S2. Agilent MassHunter software (v.4.04.00) was used for data acquisition and chromatographic peak integration.

POR-R MCLs = test: Multicellular layer (MCL) flux studies / (pro)drug transport model; assay type: in vitro ADME, human; details: for D s: diffusion coefficient in spheroid: Table 1
Experimental: The extravascular transport properties of CP-506 and its formed metabolites were investigated using a custom-designed diffusion apparatus, as described previously ([Hicks et al., 2006]). Briefly, MCL cultures were established by seeding 1 x 10^6 POR-R cells onto collagen-coated Millicell-CM inserts for 3 days. Established MCLs were placed at the interface of the two media-filled compartments of diffusion chambers. Diffusion chambers were placed in a 37°C water bath and gassed with a supraoxic (95% O2, 5% CO2) or anoxic (5% CO2, bal N2) mixture for at least 1 h prior to drug addition. Flux was initiated by the addition of internal standard ([^14C]-urea) and 20 µM CP-506 to the donor compartment. Samples (100 µl) were collected from both the donor and receiver compartments for up to 5 h thereafter. At each time point, a 25 µl aliquot was mixed with emulsifier-safe water-accepting scintillant and assayed for radioactivity using a Perkin Elmer Tricard 2910 TR liquid scintillation analyser. The remaining sample was treated with two volumes of ice-cold acetonitrile (containing 2 µM of the relevant deuterated internal standards) and stored at −80°C until LC-MS/MS analysis. Similar experiments were performed using collagen-coated inserts without MCLs to deduce the chemical stability and diffusion coefficient of CP-506 across the bare support membrane.
Drug transport in MCLs was modelled as a one-dimensional diffusion with reaction across four consecutive compartments (stirred donor, POR-R MCL, collagen-coated teflon support membrane and stirred receiver) using a custom designed MatLab routine ([Foehrenbacher et al., 2013a]). Model parameters were derived by fitting Eq. 1 and Eq. 2 to the measured concentration-time profile of internal standard [^14C]-urea, CP-506, CP-506H and CP-506M in MCL flux studies. The flux of CP-506 and its metabolites across POR-R MCLs was described using Fick’s second law with a reaction term: ∂CeN/∂t=DN∂^2CeN/∂x^2−klossNCeN− φ( kinNCeN− koutNCiN) (1) ∂CiN/∂t= kmet0(N−1)Ci(N−1)+φ(kinNCeN− koutNCiN)−kmet0NCiN (2) where C is the concentration of the diffusing substance at position x and time t in the extracellular (e) or intracellular (i) compartment, D is the diffusion coefficient through either a bare support membrane (without cells) (D suo ) or extracellular space of a POR-R MCL (D MCL ), k loss is the rate constant for first-order loss (instability) in culture medium, k in and k out are the rate constants for transmembrane transport and k met0 is the rate constant for intracellular metabolism and instability for each compound (N). For metabolites, N-1 represents the previous compound from which the current compound is produced by metabolism. Experimental data was fitted iteratively to derive a tissue diffusion coefficient (DMCL) and metabolic scaling factor (φ i ) to restrain parameter estimates from the cellular PK model (Kin, Kout, Kmet0). The diffusion coefficient for CP-506 across the bare support membrane (Dsup) was determined by solving Eq. 1 with a reaction term only for chemical instability. MCL thicknesses were estimated by fitting the measured [^14C]-urea concentrations to those predicted by Eq. 1 and Eq. 2 without instability or metabolism by using the known diffusion coefficient (DMCL) for [^14C]-urea in HCT-116 MCLs ([Wilson et al., 2004]). The diffusion coefficient (DMCL) for CP-506 in POR-R MCLs was then fitted from the measured concentrations in the donor and receiver compartments of supraoxic experiments by assuming one-directional diffusion in the extracellular space. The metabolic scaling factor (φ i ) was then fitted from the measured concentrations in the donor and receiver compartment of anoxic experiments by fixing parameter estimates to the diffusion coefficient (DMCL) from supraoxic experiments.

[2] = 37°C, aerobic, medium without serum/cells, 100 µM, read-out: Half-life (T1/2) in stirred medium
[3] = buffer, Table 1, stirred culture medium at 37°C, read-out: Half-life: time required to reduce the concentration of drug to half of its initial value (converted)
[4] = assumed equivalent to CP-506 for the active metabolites

Compound | half-life at 100 µM [1, 2] | half-life at 100 µM [1, 3] | D s: diffusion coefficient in spheroid (POR-R MCLs; [4]) | Half-life (T1/2) in stirred medium ([1]; 37°C, aerobic, medium without serum/cells, 100 µM) | Fold longer half-life than CP-506H or CP-506M ([1]; stirred medium, Figure 3B) | Time without loss of mass balance in stirred medium ([1]; 37°C, aerobic, stirred medium) | D s: diffusion coefficient in spheroid (POR-R MCLs; DMCL fitted in POR-R MCLs under supraoxic conditions) | DMCL: diffusion coefficient across POR-R MCLs (POR-R MCLs; Table S4, anoxia, fixed to the supraoxic value) | DMCL: diffusion coefficient across POR-R MCLs (POR-R MCLs; Table S4, supraoxia) | DMCL: diffusion coefficient across POR-R MCLs (POR-R MCLs; supraoxic experiments)
CCN1CCN(C(=O)c2cc(N(CCBr)CCOS(C)(=O)=O)c(S(C)(=O)=O)cc2NO)CC1 [CP-506H, 2-((2-bromoethyl)(5-(4-ethylpiperazine-1-carbonyl)-4-(hydroxyamino)-2-(methylsulfonyl)phenyl)amino)ethyl methanesulfonate] | 10.5 min | 10.8 min | 1.93 × 10^−7 ± 1.8 × 10^−8 cm^2s^−1 |  |  |  |  |  |  | 
CCN1CCN(C(=O)c2cc(N(CCBr)CCOS(C)(=O)=O)c(S(C)(=O)=O)cc2N)CC1 [CP-506M, 2-((4-amino-5-(4-ethylpiperazine-1-carbonyl)-2-(methylsulfonyl)phenyl)(2-bromoethyl)amino)ethyl methanesulfonate] | 7.6 min | 7.8 min | 1.93 × 10^−7 ± 1.8 × 10^−8 cm^2s^−1 |  |  |  |  |  |  | 
CCN1CCN(C(=O)c2cc(N(CCCl)CCCl)c(S(C)(=O)=O)cc2N)CC1 [CP-506M-Cl2, (2-Amino-5-(bis(2-chloroethyl)amino)-4-(methylsulfonyl)phenyl)(4-ethylpiperazin-1-yl)methanone] | 271 min | 271 min | 1.93 × 10^−7 ± 1.8 × 10^−8 cm^2s^−1 | 271 min | ≥ 10 fold |  |  |  |  | 
CCN1CCN(C(=O)c2cc(N(CCBr)CCOS(C)(=O)=O)c(S(C)(=O)=O)cc2[N+](=O)[O-])CC1 [CP-506, 2-[(2-bromoethyl)-5-[(4-ethyl-1-piperazinyl)carbonyl]-2-(methylsulfonyl)-4-nitroanilino]ethyl methanesulfonate] |  | 1800 min |  |  |  | over 360 min | 1.93 × 10^−7 ± 1.8 × 10^−8 cm^2s^−1 | 1.93 (fixed) x 10^-6 cm^2 s^-1 | 1.93 ± 0.01 (6) x 10^-6 cm^2 s^-1 | 1.93 ± 0.011 x 10^−7 cm^2s^−1
